Measurements: patent US9580437B2, “Triazolopyrimidine compounds and uses thereof” (Novartis AG, priority 2014, dated 2017)

Assays:
EED (1-441)-His protein = EED (1-441)-His protein (Homo sapiens (Human), UniProt O75530); assay: EED-H3K27Me3 peptide competition binding assay by AlphaScreen; conditions: read-out: (a) IC50 EED Alphascreen binding Qualified
Source text: EED-H3K27Me3 peptide competition binding assay by AlphaScreen (α-screen)

[1] = target: wild type PRC2 (wtPRC2) complex (Homo sapiens (Human), UniProt O75530); assay: EED LC-MS assay; type: biochemical; conditions: read-out: (b) IC50 EED LC-MS Qualified
Sequence of wild type PRC2 (wtPRC2) complex (O75530 whole entry): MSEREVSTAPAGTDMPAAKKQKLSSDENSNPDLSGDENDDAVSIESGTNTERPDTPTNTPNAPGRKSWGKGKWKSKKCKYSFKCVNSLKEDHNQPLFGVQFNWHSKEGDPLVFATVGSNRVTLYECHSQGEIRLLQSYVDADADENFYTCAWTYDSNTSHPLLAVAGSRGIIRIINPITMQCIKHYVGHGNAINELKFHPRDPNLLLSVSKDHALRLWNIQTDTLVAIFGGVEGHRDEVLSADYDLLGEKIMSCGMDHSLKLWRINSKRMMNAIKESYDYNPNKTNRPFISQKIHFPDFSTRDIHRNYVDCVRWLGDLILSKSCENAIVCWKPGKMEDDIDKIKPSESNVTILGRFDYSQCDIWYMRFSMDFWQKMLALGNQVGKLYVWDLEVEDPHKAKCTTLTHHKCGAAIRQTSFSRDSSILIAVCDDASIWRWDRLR
Sequence of wild type PRC2 (wtPRC2) complex (Q15910 whole entry partner): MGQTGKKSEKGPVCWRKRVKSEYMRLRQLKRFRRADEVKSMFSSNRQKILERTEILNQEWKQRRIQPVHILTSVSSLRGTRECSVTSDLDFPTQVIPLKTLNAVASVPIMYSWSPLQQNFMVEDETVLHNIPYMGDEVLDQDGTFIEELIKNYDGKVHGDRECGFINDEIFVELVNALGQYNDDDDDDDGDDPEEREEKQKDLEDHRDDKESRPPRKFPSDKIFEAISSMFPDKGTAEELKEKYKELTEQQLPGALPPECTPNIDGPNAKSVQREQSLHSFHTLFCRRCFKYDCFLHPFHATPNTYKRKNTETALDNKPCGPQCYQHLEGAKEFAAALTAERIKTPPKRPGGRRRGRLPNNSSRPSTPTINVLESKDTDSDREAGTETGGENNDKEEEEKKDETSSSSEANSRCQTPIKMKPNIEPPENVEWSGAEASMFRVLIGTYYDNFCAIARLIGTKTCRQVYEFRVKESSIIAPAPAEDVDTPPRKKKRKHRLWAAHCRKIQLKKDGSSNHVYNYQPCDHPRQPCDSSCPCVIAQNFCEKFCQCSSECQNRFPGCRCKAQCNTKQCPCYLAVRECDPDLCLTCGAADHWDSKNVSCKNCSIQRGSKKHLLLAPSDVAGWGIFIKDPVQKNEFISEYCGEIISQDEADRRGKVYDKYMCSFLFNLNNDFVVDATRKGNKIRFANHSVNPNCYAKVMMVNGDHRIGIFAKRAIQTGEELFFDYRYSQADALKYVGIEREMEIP
Sequence of wild type PRC2 (wtPRC2) complex (Q15022 whole entry partner): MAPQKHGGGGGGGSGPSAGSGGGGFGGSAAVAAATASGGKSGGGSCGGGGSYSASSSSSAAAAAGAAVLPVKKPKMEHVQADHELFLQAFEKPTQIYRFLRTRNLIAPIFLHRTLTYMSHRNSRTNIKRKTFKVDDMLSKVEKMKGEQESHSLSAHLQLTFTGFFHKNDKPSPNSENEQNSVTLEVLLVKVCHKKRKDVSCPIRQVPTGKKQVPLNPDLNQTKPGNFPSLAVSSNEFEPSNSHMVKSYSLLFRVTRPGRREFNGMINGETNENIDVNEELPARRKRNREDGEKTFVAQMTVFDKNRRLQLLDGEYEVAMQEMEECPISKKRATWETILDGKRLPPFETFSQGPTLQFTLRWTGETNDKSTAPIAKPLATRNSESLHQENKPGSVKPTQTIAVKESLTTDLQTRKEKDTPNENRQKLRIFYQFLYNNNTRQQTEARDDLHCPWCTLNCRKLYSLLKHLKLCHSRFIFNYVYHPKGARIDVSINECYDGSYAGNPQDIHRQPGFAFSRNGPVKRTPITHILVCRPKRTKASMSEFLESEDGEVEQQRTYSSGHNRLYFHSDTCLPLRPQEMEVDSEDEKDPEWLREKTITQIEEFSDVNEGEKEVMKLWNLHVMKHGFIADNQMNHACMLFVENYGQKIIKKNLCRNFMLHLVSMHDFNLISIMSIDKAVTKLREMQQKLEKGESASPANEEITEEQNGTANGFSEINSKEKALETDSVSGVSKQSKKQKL
Method: A 6 μL solution of 3 μM of the peptide substrate H3K27Me0 (histone H3[21-44]-biotin) in reaction buffer was added to initiate each reaction. […] ELISA (H3K27 Methylation) Assay

Sequence of EED (1-441)-His protein (O75530 whole entry): as the sequence (O75530 whole entry) above

Compound | IC50 (EED (1-441)-His protein) [µM] | IC50 [1] [µM]
CC(=O)N1CCN(CCc2ccc(-c3cnc(NCc4cccc5c4CCO5)n4cnnc34)cn2)CC1 [Example 108, 1-(4-(2-(5-(5-(((2,3-dihydrobenzofuran-4-yl)methyl)amino)-[1,2,4]triazolo[4,3-c]pyrimidin-8-yl)pyridin-2-yl)ethyl)piperazin-1-yl)ethanone] | 0.0067 | 0.011
CC(c1ccc(-c2cnc(NCc3cccc4c3CCO4)n3cnnc23)cc1)N1CCCC1 (stereo not drawn) [Example 14, N-((2,3-dihydrobenzofuran-4-yl)methyl)-8-(4-(1-(pyrrolidin-1-yl)ethyl)phenyl)-[1,2,4]triazolo[4,3-c]pyrimidin-5-amine] | 0.0078 | 0.0128
O=C(c1ccc(-c2cnc(NCc3cccc4c3CCO4)n3cnnc23)cn1)N1CCOCC1 [Example 68, (5-(5-(((2,3-dihydrobenzofuran-4-yl)methyl)amino)-[1,2,4]triazolo[4,3-c]pyrimidin-8-yl)pyridin-2-yl)(morpholino)methanone] | 0.0197 | 0.0367
CC1CN(c2ccc(-c3cnc(NCc4cccc5c4CCO5)n4cnnc34)cn2)CC(C)O1 (stereo not drawn) [Example 74, N-((2,3-dihydrobenzofuran-4-yl)methyl)-8-(6-(2,6-dimethylmorpholino)pyridin-3-yl)-[1,2,4]triazolo[4,3-c]pyrimidin-5-amine] | 0.0896 | 0.139
Cn1nccc1-c1cnc(NCc2cccc3c2CCO3)n2cnnc12 [Example 152, N-((2,3-dihydrobenzofuran-4-yl)methyl)-8-(1-methyl-1H-pyrazol-5-yl)-[1,2,4]triazolo[4,3-c]pyrimidin-5-amine] | 0.0055 | 0.0069
Cc1c(-c2cnc(NCc3c(F)ccc4c3C(O)CO4)n3cnnc23)ccc[n+]1[O-] (stereo not drawn) [Example 244, 3-(5-(((5-fluoro-3-hydroxy-2,3-dihydrobenzofuran-4-yl)methyl)amino)-[1,2,4]triazolo[4,3-c]pyrimidin-8-yl)-2-methylpyridine 1-oxide] | 0.0117 | 0.0389
OC1CN(c2ccc(-c3cnc(NCc4cccc5c4CCO5)n4cnnc34)cn2)C1 [Example 126, 1-(5-(5-(((2,3-dihydrobenzofuran-4-yl)methyl)amino)-[1,2,4]triazolo[4,3-c]pyrimidin-8-yl)pyridin-2-yl)azetidin-3-ol] | 0.0129 | 0.0172
CN1CCN(c2ccc(-c3cnc(NCc4cccc5c4CCO5)n4cnnc34)cn2)CC1 [Example 20, N-((2,3-dihydrobenzofuran-4-yl)methyl)-8-(6-(4-methylpiperazin-1-yl)pyridin-3-yl)-[1,2,4]triazolo[4,3-c]pyrimidin-5-amine] | 0.0144 | 0.0171
Cc1cc(-c2cnc(NCc3cccc4c3CCO4)n3cnnc23)cnc1N1CCN(C)CC1 [Example 36, N-((2,3-dihydrobenzofuran-4-yl)methyl)-8-(5-methyl-6-(4-methylpiperazin-1-yl)pyridin-3-yl)-[1,2,4]triazolo[4,3-c]pyrimidin-5-amine] | 0.0185 | 0.0224
CN(C)c1ccc(-c2cnc(NCc3cccc4c3CCO4)n3cnnc23)cn1 [Example 61, N-((2,3-dihydrobenzofuran-4-yl)methyl)-8-(6-(dimethylamino)pyridin-3-yl)-[1,2,4]triazolo[4,3-c]pyrimidin-5-amine] | 0.0129 | 0.0197
O=C(c1ccc(-c2cnc(NCc3cccc4c3CCO4)n3cnnc23)cc1)N1CCNCC1 [Example 41, (4-(5-(((2,3-dihydrobenzofuran-4-yl)methyl)amino)-[1,2,4]triazolo[4,3-c]pyrimidin-8-yl)phenyl)(piperazin-1-yl)methanone] | 0.0132 | 0.0097
Fc1ccncc1-c1cnc(NCc2cccc3c2CCO3)n2cnnc12 [Example 85, N-((2,3-dihydrobenzofuran-4-yl)methyl)-8-(4-fluoropyridin-3-yl)-[1,2,4]triazolo[4,3-c]pyrimidin-5-amine] | 0.0083 | 0.026
CN1CCN(c2ccc(-c3cnc(NCc4cccc5occc45)n4cnnc34)cc2)CC1 [Example 209, N-(benzofuran-4-ylmethyl)-8-(4-(4-methylpiperazin-1-yl)phenyl)-[1,2,4]triazolo[4,3-c]pyrimidin-5-amine] | 0.0369 | 0.029
CS(=O)(=O)c1cccc(-c2cnc(NCc3cccc4c3CCO4)n3cnnc23)c1 [Example 27, N-((2,3-dihydrobenzofuran-4-yl)methyl)-8-(3-(methylsulfonyl)phenyl)-[1,2,4]triazolo[4,3-c]pyrimidin-5-amine] | 0.0199 | 0.0472
O=C1CCCN1c1cncc(-c2cnc(NCc3cccc4c3CCO4)n3cnnc23)c1 [Example 87, 1-(5-(5-(((2,3-dihydrobenzofuran-4-yl)methyl)amino)-[1,2,4]triazolo[4,3-c]pyrimidin-8-yl)pyridin-3-yl)pyrrolidin-2-one] | 0.0418 | 0.0839
O=C1CNCCN1c1ccc(-c2cnc(NCc3cccc4c3CCO4)n3cnnc23)cn1 [Example 125, 1-(5-(5-(((2,3-dihydrobenzofuran-4-yl)methyl)amino)-[1,2,4]triazolo[4,3-c]pyrimidin-8-yl)pyridin-2-yl)piperazin-2-one] | 0.0085 | 0.0234
O=CN1CCN(c2ccc(-c3cnc(NCc4cccc5c4CCO5)n4cnnc34)cn2)CC1 [Example 134, 4-(5-(5-(((2,3-dihydrobenzofuran-4-yl)methyl)amino)-[1,2,4]triazolo[4,3-c]pyrimidin-8-yl)pyridin-2-yl)piperazine-1-carbaldehyde] | 0.0173 | 0.0305

Continued, values first:

IC50 (EED (1-441)-His protein) [µM] | IC50 [1] [µM] | Compound
0.0106 | 0.0193 | Cc1c(-c2cnc(NCc3c(F)ccc4c3CCO4)n3cnnc23)ccc[n+]1[O-] [Example 204, 3-(5-(((5-fluoro-2,3-dihydrobenzofuran-4-yl)methyl)amino)-[1,2,4]triazolo[4,3-c]pyrimidin-8-yl)-2-methylpyridine 1-oxide]
0.0041 | 0.0082 | Cc1cc(-c2cnc(NCc3c(F)ccc4c3CCO4)n3cnnc23)n(C)n1 [Example 1, 8-(1,3-dimethyl-1H-pyrazol-5-yl)-N-((5-fluoro-2,3-dihydrobenzofuran-4-yl)methyl)-[1,2,4]triazolo[4,3-c]pyrimidin-5-amine]
0.0054 | 0.0112 | OCc1ccc(-c2cnc(NCc3c(F)ccc4c3CCO4)n3cnnc23)cn1 [Example 234, (5-(5-(((5-fluoro-2,3-dihydrobenzofuran-4-yl)methyl)amino)-[1,2,4]triazolo[4,3-c]pyrimidin-8-yl)pyridin-2-yl)methanol]
0.0084 | 0.0184 | Cc1nc(CN(C)C)ccc1-c1cnc(NCc2c(F)ccc3c2CCO3)n2cnnc12 [Example 223, 8-(6-((dimethylamino)methyl)-2-methylpyridin-3-yl)-N-((5-fluoro-2,3-dihydrobenzofuran-4-yl)methyl)-[1,2,4]triazolo[4,3-c]pyrimidin-5-amine]
0.0032 | 0.0039 | Cc1nn(C(C)C)cc1-c1cnc(NCc2c(F)ccc3c2CCO3)n2cnnc12 [Example 4, N-((5-Fluoro-2,3-dihydrobenzofuran-4-yl)methyl)-8-(1-isopropyl-3-methyl-1H-pyrazol-4-yl)-[1,2,4]triazolo[4,3-c]pyrimidin-5-amine]
0.0167 | 0.0309 | Cc1nn(C(C)C)cc1-c1cnc(NCc2cccc3c2CCO3)n2cnnc12 [Example 82, N-((2,3-dihydrobenzofuran-4-yl)methyl)-8-(1-isopropyl-3-methyl-1H-pyrazol-4-yl)-[1,2,4]triazolo[4,3-c]pyrimidin-5-amine]
0.0057 | 0.0211 | Fc1ccc2c(c1CNc1ncc(-c3ccncc3Cl)c3nncn13)CCO2 [Example 162, 8-(3-chloropyridin-4-yl)-N-((5-fluoro-2,3-dihydrobenzofuran-4-yl)methyl)-[1,2,4]triazolo[4,3-c]pyrimidin-5-amine]
0.0059 | 0.0067 | CCc1ccc(-c2cnc(NCc3c(F)ccc4c3CCO4)n3cnnc23)c(C)n1 [Example 229, 8-(6-ethyl-2-methylpyridin-3-yl)-N-((5-fluoro-2,3-dihydrobenzofuran-4-yl)methyl)-[1,2,4]triazolo[4,3-c]pyrimidin-5-amine]
0.0054 | 0.007 | Cc1cc(C#N)ccc1-c1cnc(NCc2c(F)ccc3c2CCO3)n2cnnc12 [Example 178, 4-(5-(((5-fluoro-2,3-dihydrobenzofuran-4-yl)methyl)amino)-[1,2,4]triazolo[4,3-c]pyrimidin-8-yl)-3-methylbenzonitrile]
0.0038 | 0.0044 | Cc1nccc(-c2cnc(NCc3c(F)ccc4c3CCO4)n3cnnc23)c1C [Example 177, 8-(2,3-dimethylpyridin-4-yl)-N-((5-fluoro-2,3-dihydrobenzofuran-4-yl)methyl)-[1,2,4]triazolo[4,3-c]pyrimidin-5-amine]
0.023 | 0.0382 | Fc1ccc2c(c1CNc1ncc(-c3ccc(Cl)cc3Cl)c3nncn13)CCO2 [Example 146, 8-(2,4-dichlorophenyl)-N-((5-fluoro-2,3-dihydrobenzofuran-4-yl)methyl)-[1,2,4]triazolo[4,3-c]pyrimidin-5-amine]
0.0045 | 0.0074 | Cc1cc(F)ccc1-c1cnc(NCc2c(F)ccc3c2CCO3)n2cnnc12 [Example 165, N-((5-fluoro-2,3-dihydrobenzofuran-4-yl)methyl)-8-(4-fluoro-2-methylphenyl)-[1,2,4]triazolo[4,3-c]pyrimidin-5-amine]
0.0082 | 0.0125 | Cc1nn(C[C@H](C)O)c(C)c1-c1cnc(NCc2c(F)ccc3c2CCO3)n2cnnc12 [Example 187, (2S)-1-(4-(5-(((5-fluoro-2,3-dihydrobenzofuran-4-yl)methyl)amino)-[1,2,4]triazolo[4,3-c]pyrimidin-8-yl)-3,5-dimethyl-1H-pyrazol-1-yl)propan-2-ol]
